The subject of one series is HT29 cells. Kind of series: RNA-Seq analysis of HT29 cells. It is filed as cell-based, human. Conditions: 50 μM, 24 h. The protocol:
RNA sequencing: Total RNA was isolated from HT29 cells treated with vehicle and UroA (50 μM) (n=3) for 24 h and RNA was isolated using Trizol based lysis followed by Qiagen RNeasy kits. The isolated RNA was checked for integrity (RIN>9.5) using the Agilent Bioanalyzer 2100 system (Agilent Technologies, Santa Clara, CA) and quantified using a Qubit fluorometric assay (Thermo Fisher Scientific, Waltham, MA). Poly-A enriched […] libraries were prepared following Illumina's TruSeq Stranded mRNA LT library preparation protocol (Illumina Inc., San Diego, CA) using 1 μg of total RNA. All 15 samples were individually barcoded and quantitated with the KAPA Library Quantitation Kit for Illumina Platforms (Kapa Biosystems, Wilmington, MA) in conjunction with an Agilent Bioanalyzer DNA 1000 analysis (Agilent Technologies, Santa Clara, CA) for fragment size determination. The average fragment size was approximately 300 bp. […] of the pooled libraries with 1% PhiX spike-in was loaded on one NextSeq 500/550 75 cycle High Output Kit v2 sequencing flow cell and sequenced on the Illumina NextSeq 500 sequencer. The quality of the 1×75 bp sequences was checked using […] Quality Control Tool for High Throughput Sequence Data”). Trimming was not necessary with the median quality score above 30 (error probability=0.001 or 1 base call in 1,000 is predicted to be incorrect) across the entire length of the read and the lower quantile above a score of 20 (error probability=0.01) at the end of the read where there is an expected decrease in quality. The raw reads for each sample were directly aligned to the Homo sapiens (hg38) reference genome assembly (hg38.fa) using tophat2 (version 2.0.13) (KIM et al. (2013) “TopHat2: accurate alignment of transcriptomes in the presence of insertions, deletions and gene fusions” Genome biology, Vol. 14, Article […]), generating alignment files in bam format. Optional parameters include-no-coverage-search and -library-type fr-firststrand. […] On average, 26 million reads were aligned per sample with a mean alignment rate of 97 percent. […]

Another series relates to AhR^−/− mice. Kind of series: Acute ALD model in AhR^−/− mice. Conditions: 20 mg/kg at 2, 14 and 26 h. It is filed as in vivo, mouse. Here is the method: FIG. 19: UroA treatment failed in AhR^−/− mice to protect against binge EtOH-induced ALD. C547BL/6 and AhR^−/− mice (n=4/group) were oral gavaged with alcohol (2.5 g/kg) at 0, 12 and 24 h. Mice were treated with Veh (0.25% CMC) or UroA (20 mg/kg) at 2, 14 and 26 h. Mice were euthanized at 32 h. The Fecal albumin was measured using standard ELISA. Serum endotoxin, TNF-α, ALT as well as liver ALT and TG levels using ELISA methods. Error bars, ±SEM. Statistics were performed using 2way ANOVA multiple comparisons. * p<0.05, ** p<0.01, *** p<0.001.
AhR has a role for UroA mediated protection in ALD model: To address the role of AhR expression for UroA mediated activities, we performed acute ALD models in C57BL/6J mice and AhR^−/− mice. In this experiment, mice (WT, AhR^−/− mice (n=4/group)) were treated with half the dose of EtOH (2.5 g/kg) at 0, 12 and 24 h followed by oral treatment Veh (0.25% CMC) or UroA (20 mg/kg) at 2, 14 and 26 h.

A further series concerns T84 cells. Kind of series: EtOH-induced internalization of junction proteins. It counts as cell-based. Conditions: 50 μM 1 h, then EtOH 40 mM 6 h. From the text:
The membrane and cytosolic fractions were isolated and evaluated for tight junction (TJ) and adherins junction (AJ) and desmosomes. […] (i.e., EtOH treatment alone has more cytosolic protein and EtOH+UroA has more membrane fraction) (FIG. 20).

Series [1] addresses T1, breast cancer resistance protein (BCRP) (Homo sapiens, UniProt Q9UNQ0).
T1 construct: endogenous in cells
The series is described as follows: BCRP drug efflux activity. The note with it: colon cancer cell lines. It counts as cell-based. From the text: Therefore, blocking its activity and/or downregulating the expression of BCRP, P-gp could reverse the effect and sensitize the cancer cells.

Series [2] deals with colon cancer cell line (SW480). The note with it: human.

Entries after “also recorded” stand apart in the source; their conditions may differ.

T1 sequence (Q9UNQ0 whole entry): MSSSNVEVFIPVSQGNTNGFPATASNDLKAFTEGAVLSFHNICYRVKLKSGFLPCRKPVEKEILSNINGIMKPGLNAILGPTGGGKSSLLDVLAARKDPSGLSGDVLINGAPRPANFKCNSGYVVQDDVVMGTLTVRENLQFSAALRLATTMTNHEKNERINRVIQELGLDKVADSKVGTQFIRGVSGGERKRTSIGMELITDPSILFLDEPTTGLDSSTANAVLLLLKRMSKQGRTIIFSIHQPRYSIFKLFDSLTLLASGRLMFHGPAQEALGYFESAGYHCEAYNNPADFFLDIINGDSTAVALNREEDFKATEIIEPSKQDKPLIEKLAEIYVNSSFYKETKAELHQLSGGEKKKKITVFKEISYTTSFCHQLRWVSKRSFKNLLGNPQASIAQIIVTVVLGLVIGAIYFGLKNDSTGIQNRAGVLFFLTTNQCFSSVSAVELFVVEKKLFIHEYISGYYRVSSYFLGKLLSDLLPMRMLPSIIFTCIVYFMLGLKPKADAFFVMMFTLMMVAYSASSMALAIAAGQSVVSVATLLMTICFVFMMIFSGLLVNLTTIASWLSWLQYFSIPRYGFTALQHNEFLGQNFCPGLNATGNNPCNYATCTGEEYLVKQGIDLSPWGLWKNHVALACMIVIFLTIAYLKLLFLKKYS

As for `O=c1oc2cc(O)ccc2c2ccc(O)cc12` [UroA, 3,8-dihydroxy-6H-dibenzo[b,d]pyran-6-one], in the series with HT29 cells, the “Cyp1A1 expression (RNA-Seq)” value is recorded as “among the top 3 UroA upregulated genes”, the “claudin 4 (Cldn4) expression (RNA-Seq)” value is given as “upregulated” and the “heme oxygenase 1 (HMOX1 or HO1) expression (RNA-Seq)” value is given as “increased the expression”. Moreover, the “TG levels in AhR^−/− mice” value in the series with AhR^−/− mice was “down regulated TG levels”. Further, the “EtOH-induced gut leakage, serum endotoxins, TNF-α, ALT, liver ALT in AhR^−/− mice” value with AhR^−/− mice (EtOH 2.5 g/kg) was “did not appear to rescue”. Further, in the series on T84 cells, the “EtOH-induced internalization of membrane junction proteins to cytosol” value is given as “protected from EtOH-induced internalization”. Besides, in series [1], the “BCRP drug efflux activity” value was “decreased drug efflux activities; also recorded: reduced the BCRP activity”. For the same molecule, the “cell viability in combination with 5FU” value in series [2] stood at 69%.

The values are drawn from US12377069B2, “Compounds, compositions, methods of using, and methods for preparing compounds” (UNIVERSITY OF LOUISVILLE RESEARCH FOUNDATION, INC., priority 2018, dated 2025).
